In BindingDB's records for PubMed 37257213 (Birla Institute of Technology and Science Pilani):
pIC50: −log10 of the molar value.

Target: Trypanothione reductase (UniProt P39050)
Assay: Inhibition of Leishmania donovani Trypanothione reductase

Chain of Trypanothione reductase (P39050 whole entry): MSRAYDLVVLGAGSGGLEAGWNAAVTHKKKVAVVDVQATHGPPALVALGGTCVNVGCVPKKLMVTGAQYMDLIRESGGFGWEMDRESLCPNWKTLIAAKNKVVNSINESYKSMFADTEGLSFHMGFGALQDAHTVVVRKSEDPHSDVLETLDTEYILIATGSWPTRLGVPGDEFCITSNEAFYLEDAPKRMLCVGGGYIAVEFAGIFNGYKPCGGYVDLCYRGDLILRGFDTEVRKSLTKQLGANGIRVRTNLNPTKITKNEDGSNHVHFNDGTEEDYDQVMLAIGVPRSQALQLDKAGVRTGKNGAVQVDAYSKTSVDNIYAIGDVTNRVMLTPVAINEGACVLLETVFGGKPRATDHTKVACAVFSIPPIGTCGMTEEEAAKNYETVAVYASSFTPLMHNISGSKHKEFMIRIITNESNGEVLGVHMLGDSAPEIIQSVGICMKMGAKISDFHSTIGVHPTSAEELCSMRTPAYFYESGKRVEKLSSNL

- pIC50: 4.04
SMILES: CN(C)c1ncnc2c1C1(CCCC1)Cc1ccccc1-2 [Name not given]
